In article PMC6487070, “Molecular transport through primary human small intestinal monolayers by culture on a collagen scaffold with a gradient of chemical cross-linking” (Journal of Biological Engineering, 2019):
Read-outs that look alike come from different tables or passages of the source.

Columns and labels:
Type in all cases: in vitro ADME
[1] = target: T1, BCRP (Homo sapiens, UniProt Q9UNQ0); experiment: Bidirectional transport of prazosin across monolayers with and without Ko143; settings: gradient cross-linked scaffold
T1 construct: endogenous in cells; host or cells: primary human small intestinal epithelial cell monolayers on a gradient cross-linked or conventional collagen scaffold
T1 sequence (Q9UNQ0 1-655): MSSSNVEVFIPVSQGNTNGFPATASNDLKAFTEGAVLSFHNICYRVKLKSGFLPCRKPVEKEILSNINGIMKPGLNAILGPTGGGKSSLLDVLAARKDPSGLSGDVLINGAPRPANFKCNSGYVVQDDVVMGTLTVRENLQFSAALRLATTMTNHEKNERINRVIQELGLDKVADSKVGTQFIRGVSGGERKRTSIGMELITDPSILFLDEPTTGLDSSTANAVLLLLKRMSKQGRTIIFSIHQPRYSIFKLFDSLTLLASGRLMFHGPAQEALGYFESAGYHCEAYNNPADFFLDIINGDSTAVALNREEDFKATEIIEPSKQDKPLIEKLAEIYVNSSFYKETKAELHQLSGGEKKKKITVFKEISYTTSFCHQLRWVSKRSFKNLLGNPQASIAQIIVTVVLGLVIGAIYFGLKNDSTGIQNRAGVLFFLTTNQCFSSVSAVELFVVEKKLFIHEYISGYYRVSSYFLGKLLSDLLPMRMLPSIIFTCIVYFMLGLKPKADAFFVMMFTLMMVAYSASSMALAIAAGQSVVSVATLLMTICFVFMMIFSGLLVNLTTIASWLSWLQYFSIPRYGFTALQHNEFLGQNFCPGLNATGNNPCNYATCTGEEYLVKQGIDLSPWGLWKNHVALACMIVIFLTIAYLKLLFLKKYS
Procedure: All transport assays were performed by adding LY ([…]) and the drug to the luminal or basal reservoirs of the monolayer (n = 3). Samples were collected after 3 h. LY was added to ensure that monolayer integrity remained intact throughout the assay. Additionally, TEER was measured before and after the assay to further verify that monolayer integrity remained constant throughout the assay. Monolayers with a TEER > 90 Ω cm^2 or 300 Ω cm^2 were used for the gradient cross-linked scaffold and conventional scaffold, respectively. […] Zosuquidar and Ko143 were added to inhibit digoxin transport and prazosin transport, respectively, 2.5 h after addition of the substrate. […]
The concentration of the drug in the collected sample was determined using HPLC-triple quadrupole mass spectrometry (LC-MS/MS, PE Sciex API 3000, AB Sciex) with multiple reaction monitoring (MRM). […] Sample concentrations were quantified using the standard curve and normalized to the signal of the appropriate internal standard. The drug apparent permeability was calculated according to the following equation: Papp = (V/(A x Ci)) x (Cf/T) where V is the volume of the basal chamber (mL), A is the area of epithelial layer (cm^2), Ci is the initial concentration of the molecule (nM), Cf is the final concentration of the drug, and T is the assay time (s). […]

[2] = tested on: primary human small intestinal epithelial monolayers; experiment: Monolayer integrity: permeability of LY and fluorescein-dextran through small intestinal epithelial monolayers; settings: monolayers on gradient cross-linked scaffold and on conventional scaffold; luminal to basal, 3 h; n = 3
Procedure: Neither LY nor fluorescein-dextran are transported by the intestinal epithelium. The TEER was measured using an EVOM^2 epithelial Volt/Ohm meter (World Precision Instruments, Sarasota, FL). The raw resistance measurements of the monolayers were subtracted from that of the average resistance (n = 3) of the collagen layer without cells and normalized by multiplying the cell culture area of the well to provide a TEER in units of Ω cm^2 [48]. The average TEER (n = 3) with a single standard deviation (SD) is shown (average ± SD). […] The amount of LY (ex: 428 nm, em: 520 nm) and fluorescein-dextran (ex: 490 nm, em: 520 nm) in the basal side was determined by measuring their fluorescence in a microplate reader (Spectramax M5, Molecular Devices Corporation, San Jose, CA). The luminal-to-basal apparent permeability (Papp) were calculated according to the following equation: […] The average Papp with a single standard deviation is shown (average ± SD).

[3] = tested on: P-gp; experiment: Bidirectional transport of digoxin across monolayers with and without zosuquidar; settings: human, n = 3, read-out: efflux ratio Papp(B-L)/Papp(L-B)
Procedure: All transport assays were performed by adding LY ([…]) and the drug to the luminal or basal reservoirs of the monolayer (n = 3). Samples were collected after 3 h. LY was added to ensure that monolayer integrity remained intact throughout the assay. Additionally, TEER was measured before and after the assay to further verify that monolayer integrity remained constant throughout the assay. Monolayers with a TEER > 90 Ω cm^2 or 300 Ω cm^2 were used for the gradient cross-linked scaffold and conventional scaffold, respectively. […] Zosuquidar and Ko143 were added to inhibit digoxin transport and prazosin transport, respectively, 2.5 h after addition of the substrate. Samples were collected 30 min after inhibitor addition for a totally assay time of 3 h.
The concentration of the drug in the collected sample was determined using HPLC-triple quadrupole mass spectrometry (LC-MS/MS, PE Sciex API 3000, AB Sciex) with multiple reaction monitoring (MRM). A C-18 analytical column with a linear gradient from 100% water with 1% formic acid to 80% acetonitrile with 1% formic acid over 8 min (0.3 mL/min) was used for the separation. […] Digitoxin was used as an internal standard for digoxin samples. Doxasozin was used an internal standard for prazosin samples. All internal standards were added to samples just prior to LC-MS/MS analysis. […] Sample concentrations were quantified using the standard curve and normalized to the signal of the appropriate internal standard. The drug apparent permeability was calculated according to the following equation: Papp = (V/(A x Ci)) x (Cf/T) where V is the volume of the basal chamber (mL), A is the area of epithelial layer (cm^2), Ci is the initial concentration of the molecule (nM), Cf is the final concentration of the drug, and T is the assay time (s). The average Papp with a single standard deviation is shown (average ± SD). The efflux ratio was calculated according to the following equation: Efflux Ratio = Papp(B-L)/Papp(L-B).

For `COc1cc2nc(N3CCN(C(=O)c4ccco4)CC3)nc(N)c2cc1OC` [prazosin], the efflux ratio at 3 h ([1]; no inhibitor, read-out: efflux ratio Papp(B-L)/Papp(L-B)) was 6.5 and the efflux ratio at 3 h ([1]; with Ko143 (concentration not stated), with BCRP inhibitor Ko143, read-out: efflux ratio Papp(B-L)/Papp(L-B)) was 1.7.

In the case of Lucifer yellow [LY], the “permeability through confluent, differentiated monolayers” value [2] is reported as “low”.

Work on `C[C@H]1O[C@@H](O[C@H]2[C@@H](O)C[C@H](O[C@H]3[C@@H](O)C[C@H](O[C@H]4CC[C@@]5(C)[C@H](CC[C@@H]6[C@@H]5C[C@@H](O)[C@]5(C)[C@@H](C7=CC(=O)OC7)CC[C@]65O)C4)O[C@@H]3C)O[C@@H]2C)C[C@H](O)[C@@H]1O` [digoxin] yielded an efflux ratio at 3 h ([3]; conventional scaffold, no inhibitor) of 2.3, an efflux ratio at 3 h ([3]; gradient cross-linked scaffold, no inhibitor) of 2.7 and an efflux ratio at 3 h ([3]; with zosuquidar (concentration not stated), conventional scaffold, in the presence of P-gp inhibitor zosuquidar) of 1.4. The efflux ratio at 3 h ([3]; with zosuquidar (concentration not stated), gradient cross-linked scaffold, in the presence of P-gp inhibitor zosuquidar) was 1.4.
